Measurements reported in US5641781A, “Topical ophthalmic composition comprising a 2-[4-(azolylbutyl)piperazinylmethyl]benzimidazole derivative, in particular for the treatment of allergic conjunctivitis” (Laboratorios Del Dr. Esteve, S.A., priority 1995, dated 1997).

Test system: guinea pig conjunctiva
Experiment: Microvascular permeability in guinea pig conjunctiva induced by histamine (extravasation of Evans blue dye), topical ocular administration
Type: in vivo, guinea pig (male VAF Dunkin/Hartley)
Details: for % change (degree of permeability): topical, vs vehicle; for ED50 (concentration producing 50% inhibition of vascular permeability): Table 3
Method: The ocular antihistaminic topical effect of the products which form the subject of the present invention was evaluated by means of a model of microvascular permeability in guinea pig conjunctiva, induced by histamine. In this animal model of ocular antiallergic activity, the power, the fifty percent effective dose and the duration of action are measured.
Microvascular Permeability in Guinea Pig Conjunctiva Induced by Histamine (Extravasation of Evans Blue Dye)
Male VAF Dunkin/Hartley guinea pigs (6 per group) are injected intravenously, into the marginal vein of the ear, with 1.0 ml of Evans blue (1.0 mg/ml). Approximately 15 minutes after injection of the dye, 20 μl of the appropriate concentration of the compound of Example 1 or of the vehicle are applied topically to an eye of each of the animals. 2 minutes, 30 minutes and 6 hours after the topical application, the guinea pigs are anaesthetized and histamine (300 ng/10 μl) is administered to them subconjunctivally. Thirty minutes later the animals are sacrificed by inhalation of CO2 and the area of extravasation of the Evans blue is measured. The area of the blue dye is multiplied by the intensity of the colour, graded from 1 to 6, in order to produce a value of permeability for each animal (Yauni et al., Int. Arch. Allergy Immunol., 1993, 101, 102-106). The values obtained by the groups treated are then compared with those obtained with the group treated with the vehicle using Dunnett's "t" test (Dunnett C. W. "A multiple comparison procedure for comparing treatments with a control", J. Am Star. Assoc 1955, 50, 1096-1121)
This inhibition is observed in a range of concentrations from 0.1% to 0.0001% weight/volume.

Structure (SMILES): CCOCCn1c(CN2CCN(CCCCn3cccn3)CC2)nc2ccccc21 [Example 1]
- % change (degree of permeability) (0.00001 % (w/v), 30'): -6%
- % change (degree of permeability) (0.00001 % (w/v), 6 h): -3%
- % change (degree of permeability) (0.0001 % (w/v), 30'): -45%
- % change (degree of permeability) (0.0001 % (w/v), 6 h): -36%
- % change (degree of permeability) (0.001 % (w/v), 2'): -41%
- % change (degree of permeability) (0.001 % (w/v), 30'): -66%
- % change (degree of permeability) (0.001 % (w/v), 6 h): -66%
- % change (degree of permeability) (0.01 % (w/v), 2'): -66%
- % change (degree of permeability) (0.01 % (w/v), 30'): -85%
- % change (degree of permeability) (0.01 % (w/v), 6 h): -91%
- % change (degree of permeability) (0.1 % (w/v), 2'): -75%
- % change (degree of permeability) (0.1 % (w/v), 30'): -100%
- % change (degree of permeability) (0.1 % (w/v), 6 h): -100%
- ED50 (concentration producing 50% inhibition of vascular permeability) (2'): 0.0024 % w/v
- ED50 (concentration producing 50% inhibition of vascular permeability) (30'): 0.00035 % w/v
- ED50 (concentration producing 50% inhibition of vascular permeability) (6 h): 0.00043 % w/v
- ED50 (concentration which produces a 50% inhibition of the vascular permeability) (at 2 minutes): 0.0024 w/v
- ED50 (concentration which produces a 50% inhibition of the vascular permeability) (at 30 minutes): 0.00035 w/v
- ED50 (concentration which produces a 50% inhibition of the vascular permeability) (at 8 hours): 0.00043 w/v
- antihistaminic activity and duration of action (in words) (ocular topical administration): powerful antihistaminic activity accompanied by an exceptionally long duration of action
- inhibition of vascular permeability induced by histamine (in words) (ocular topical administration): inhibits, significantly and in a dose-dependent manner
